Test results as given in ChEMBL document CHEMBL5356989, “Impact of multiple H/D replacements on the physicochemical properties of flurbiprofen” (RSC Med Chem, 2023).
In brackets after ≈: the same amount, converted by molar mass.

How the values were obtained:
Cytochrome P450 2C9 [1] = target: T1, Cytochrome P450 2C9 (Homo sapiens, UniProt P11712); test: Drug metabolism assessed as recombinant CYP2C9 (unknown origin)-mediated 4'-hydroxy FP metabolite formation at 1 to 5 uM incubated for 10 mins in presence of NADPH by LC-MS analysis; assay type: ADME; settings: recombinant enzyme, dose 1-5 µM
T1 sequence (P11712 whole entry): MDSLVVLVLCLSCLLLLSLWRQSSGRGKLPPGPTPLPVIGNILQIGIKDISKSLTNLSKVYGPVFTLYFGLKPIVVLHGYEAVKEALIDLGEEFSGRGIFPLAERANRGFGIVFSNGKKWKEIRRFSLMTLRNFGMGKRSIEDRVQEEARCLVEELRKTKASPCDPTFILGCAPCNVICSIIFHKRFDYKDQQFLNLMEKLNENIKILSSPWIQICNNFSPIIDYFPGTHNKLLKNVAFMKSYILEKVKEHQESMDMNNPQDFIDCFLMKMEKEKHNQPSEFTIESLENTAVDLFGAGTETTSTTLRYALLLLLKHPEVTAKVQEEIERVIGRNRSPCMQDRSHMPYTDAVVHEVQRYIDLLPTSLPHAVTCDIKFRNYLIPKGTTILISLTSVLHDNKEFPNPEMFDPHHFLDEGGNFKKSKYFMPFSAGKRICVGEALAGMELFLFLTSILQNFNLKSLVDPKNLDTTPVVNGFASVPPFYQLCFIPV

[2] = Cmax in fasted Sprague Dawley rat at 10 mg/kg, po measured for 8 hrs by HPLC analysis; assay type: ADME, organism-based; design: dose 10 mg/kg, time 8 hrs, route po; settings: in vivo
[3] = Tmax in fasted Sprague Dawley rat at 10 mg/kg, po measured for 8 hrs by HPLC analysis; assay type: ADME, organism-based; settings: in vivo
[4] = AUC (0 to 8 hrs) in fasted Sprague Dawley rat at 10 mg/kg, po measured for 8 hrs by HPLC analysis; assay type: ADME, organism-based; design: dose 10 mg/kg, time 8 hrs, route po; settings: in vivo
[5] = Oral bioavailability in fasted Sprague Dawley rat at 10 mg/kg measured for 8 hrs by HPLC analysis; assay type: ADME, organism-based; settings: in vivo
[6] = Clearance in Sprague Dawley rat at 1 mg/kg, iv measured for 8 hrs by HPLC analysis; assay type: ADME, organism-based; settings: in vivo
[7] = Volume of distribution at steady state in Sprague Dawley rat at 1 mg/kg, iv measured for 8 hrs by HPLC analysis; assay type: ADME, organism-based; settings: in vivo, read-out: Vdss
[8] = AUC (0 to 8 hrs) in Sprague Dawley rat at 1 mg/kg, iv measured for 8 hrs by HPLC analysis; assay type: ADME, organism-based; design: dose 1 mg/kg, time 8 hrs, route iv; settings: in vivo
[9] = Lipophilicity, log D of compound in n-octanol/PBS at pH 7.4 at 10 mg measured for 48 hrs by HPLC analysis; assay type: physicochemical
[10] = Solubility in distilled water at 1 mg measured for 28 hrs by HPLC analysis; assay type: physicochemical
[11] = Solubility in HCl at pH 1.2 at 1 mg measured for 28 hrs by HPLC analysis; assay type: physicochemical; settings: HCl pH 1.2, pH 1.2
[12] = Solubility in PBS at pH 6.0 at 1 mg measured for 28 hrs by HPLC analysis; assay type: physicochemical; settings: PBS pH 6.0, pH 6
[13] = Permeability of compound assessed as drug flux measured for 2 to 6 hrs by PAMPA assay; assay type: ADME; settings: time 2-6 hrs
[14] = Apparent permeability of compound by PAMPA assay; assay type: ADME
[15] = Half life in Sprague Dawley rat at 1 mg/kg, iv measured for 8 hrs by HPLC analysis; assay type: ADME, organism-based; settings: in vivo
Cytochrome P450 2C9 [16] = target: T1, Cytochrome P450 2C9; test: Drug metabolism assessed as recombinant CYP2C9 (unknown origin)-mediated 4'-hydroxyl FP-d7 metabolite formation at 1 to 5 uM incubated for 10 mins in presence of NADPH by LC-MS analysis; assay type: ADME; settings: recombinant enzyme, dose 1-5 µM
Cytochrome P450 2C9 [17] = target: T1, Cytochrome P450 2C9; test: Drug metabolism assessed as recombinant CYP2C9 (unknown origin)-mediated 4'-hydroxyl FP-d7 metabolite formation by measuring Vmax per nmol of CYP at 1 to 5 uM incubated for 10 mins in presence of NADPH by LC-MS analysis; assay type: ADME; settings: recombinant enzyme, dose 1-5 µM
Cytochrome P450 2C9 [18] = target: T1, Cytochrome P450 2C9; test: Drug metabolism assessed as recombinant CYP2C9 (unknown origin)-mediated 4'-hydroxyl FP-d7 metabolite formation by measuring Vmax/Km per nmol of CYP at 1 to 5 uM incubated for 10 mins in presence of NADPH by LC-MS analysis; assay type: ADME; settings: recombinant enzyme, dose 1-5 µM

## CC(C(=O)O)c1ccc(-c2ccccc2)c(F)c1 (configuration not stated) [FLURBIPROFEN]
Cytochrome P450 2C9 [1]
  Drug metabolism: Metabolite_Detected
[2]
  Cmax: 29600 ng/mL
[3]
  Tmax: 30 min
[4]
  AUC(0-t) at 8 h: 130000 ng·h/mL
[5]
  bioavailability: 66.9%
[6]
  clearance: 0.216 mL/min/kg
[7]
  Vd: 0.0204 L/kg
[8]
  AUC(0-t) at 8 h: 19500 ng·h/mL
[9]
  logD at 48 h: 0.9
[10]
  solubility at 28 h: 24.1 µg/mL (≈ 98.7 µM)
[11]
  solubility at 28 h: 5.9 µg/mL (≈ 24.2 µM)
[12]
  solubility at 28 h: 810 µg/mL (≈ 3310 µM)
[13]
  Drug transport: 4.53 µg/h
[14]
  Papp: 5.24 ×10⁻⁶ cm/s
[15]
  half-life: 34.2 min

## [2H]c1c([2H])c([2H])c(-c2c([2H])c([2H])c(C(C)C(=O)O)c([2H])c2F)c([2H])c1[2H] (configuration not stated)
Cytochrome P450 2C9 [16]
  Drug metabolism: Metabolite_Detected
Cytochrome P450 2C9 [17]
  Vmax: 0.91 pmol/min
Cytochrome P450 2C9 [18]
  Vmax/Km: 1.24 µL/min
[2]
  Cmax: 33000 ng/mL
[3]
  Tmax: 60 min
[4]
  AUC(0-t) at 8 h: 144000 ng·h/mL
[5]
  bioavailability: 75.3%
[6]
  clearance: 0.217 mL/min/kg
[7]
  Vd: 0.0207 L/kg
[8]
  AUC(0-t) at 8 h: 19200 ng·h/mL
[9]
  logD at 48 h: 0.87
[10]
  solubility at 28 h: 32.7 µg/mL (≈ 129 µM)
[11]
  solubility at 28 h: 12.7 µg/mL (≈ 50.5 µM)
[12]
  solubility at 28 h: 918 µg/mL (≈ 3640 µM)
[13]
  Drug transport: 4.6 µg/h
[14]
  Papp: 5.32 ×10⁻⁶ cm/s
[15]
  half-life: 33 min
